In US5416111A, “Cyano-containing n-phenyl-amino-terminated non-peptidyl α-succinamidoacyl aminodiols as anti-hypertensive agents” (G.D. Searle & Co., priority 1993, dated 1995):

How the values were obtained:
hog renin = hog renin inhibition assay in vitro (angiotensin I produced, radioimmunoassay); format: biochemical; details: 20 micromolar synthetic tetradecapeptide substrate, pH 7.4, one hour at 37° C.
Experimental: (§1) Compounds of Formula I were evaluated as inhibitors of human renin in an in vitro assay, as follows: This human renin inhibition test has been previously described in detail [Papaioannou, et al., Clinical and Experimental Hypertension, A7(9), 1243-1257 (1985)]. Human renin was obtained from the National Institute for Biological Standards, London. In a total volume of 0.25 mL 100 mM Tris-acetate buffer at pH 7.4, 25×10-6 Goldblatt units of renin, 0.05 mL of plasma from human volunteers taking oral contraceptives, 6.0 mM sodium EDTA, 2.4 mM phenylmethyl sulfonyl fluoride, 1.5 mM 8-hydroxyquinoline, 0.4 mg/mL BSA, and 0.024 mg/mL neomycin sulfate were incubated for two hours at 37° C. in the presence or absence of renin inhibitors. The produced angiotensin I was determined by radioimmunoassay (New England Nuclear kit). Compounds to be assayed were solubilized in either ethyl alcohol or DMSO and diluted with 100 mM Tris-acetate buffer at pH 7.4 to the appropriate concentration. The final concentration of organic solvent in the reaction mixture was less than 1%. Control incubations at 37° C. were used to correct for effects of organic solvent on renin activity.
The hog renin inhibition assay was performed in a manner similar to the human renin assay, with the following modifications. […] The amount of angiotensin I produced was determined as for the human renin inhibition assay.

human renin = target: T1, human renin (Homo sapiens, UniProt P00797); assay: human renin inhibition assay in vitro (angiotensin I produced, radioimmunoassay); format: biochemical; details: human plasma, pH 7.4, two hours at 37° C.
T1 construct: purchased National Institute for Biological Standards, London
T1 sequence (P00797 67-406): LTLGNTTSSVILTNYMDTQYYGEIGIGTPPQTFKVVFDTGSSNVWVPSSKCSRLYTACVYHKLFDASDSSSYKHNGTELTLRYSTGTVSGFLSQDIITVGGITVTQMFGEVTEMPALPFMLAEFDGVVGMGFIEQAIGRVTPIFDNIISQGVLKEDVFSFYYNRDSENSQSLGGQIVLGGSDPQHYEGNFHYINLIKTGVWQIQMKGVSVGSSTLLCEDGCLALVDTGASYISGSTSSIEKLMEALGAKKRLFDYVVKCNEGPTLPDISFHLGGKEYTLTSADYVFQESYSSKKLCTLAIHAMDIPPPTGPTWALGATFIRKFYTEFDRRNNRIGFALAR
Experimental: as §1

Which IC50 (hog renin) does the source give for `CC(C)C[C@H](NC(=O)C(CC(=O)N1CCOCC1)Cc1cccc2ccccc12)C(=O)N[C@@H](CC1CCCCC1)[C@@H](O)CO` (stereo partly drawn) [Example 9, 3-(N-morpholinocarbonyl)-2-(R,S)-(1-naphthylmethyl)-propionyl-L-leucinamide of (2S ,3R)-2-amino-1-cyclohexyl-3,4-dihydroxybutane] here?
Its IC50 is 2800 nM.

And the IC50 (human renin)?
Its IC50 is 740 nM.
